Reference: patent US20210022342A1, “THE USE OF SAFENERS TO IMPROVE RESISTANCE OF RICE CROP TO HERBICIDES” (Adama Agan Ltd., priority 2018, published 2021)

Columns and labels:
Format in all cases: in vivo
[1] = test system: wild type rice (Non-Traited Rice); assay: Imazamox dose response with or without isoxadifen, regrowth, wild type rice; settings: for Calculated effect of Safener (relative fresh weight re-growth): difference with and without isoxadifen on Non-Traited Rice
Procedure: (§1) Seed of an ALS resistant rice variety (rice plant with the A205V and G654E substitution (ATCC accession numbers PTA-123859, PTA-123860 and/or PTA-123861) is planted in a commercial greenhouse soil mix in 10×10×10 cm plastic pots. 250 mL of soil is put into each pot, then the seed is placed on top of the soil and the seed is covered with 100-150 mL of soil. Approximately 8-10 seeds are planted per pot. The pots are then watered with 100 mL of a mixture of Miracle Grow and Fertiplus (iron supplement). The pots are placed in the greenhouse (38° C./20° C. day/night, 14 h photoperiod with supplemental light). The average light intensity in the greenhouse is 150 μM/m^2/sec.
(§2) Plants are grown until 10 days after planting and then the pots are transferred to trays and the plants are grown under water. Plants are treated when they reach the 3-5 leaf stage.
(§3) Generally, plants are treated through a moving nozzle spray system in a spray volume of 200 l/ha or 187 l/ha. Isoxadifen is tank mixed with the herbicide in the spray bottle at a rate of 100 g/ha.
(§4) Four days after treatment, the tops of the plants are cut off to approximately 3 cm from the top of the soil. The plants are allowed to regrow for 7 days at which time the amount of regrowth is measured by cutting any growth above 3 cm above the top of soil and weighing the tissue that regrew.
(§5) The imazamox (in rates of 0, 2.2, 6.6, 19.7, 54.9 and 177.3 g/ha) was applied on wild type rice and herbicide resistance rice in the presence or absence of safener (isoxadifen at 100 g/ha).
(§6) The improvement in regrowth was calculated by subtracting the regrowth from a) wild type rice and wild type rice with isoxadifen; b) herbicide resistant rice; and c) herbicide resistant rice and isoxadifen.
(§7) Calculations were done for each application rate of imazamox. The efficacy of safener alone and mutation alone on decreasing herbicide effect/increasing herbicide resistance were calculated. The relative fresh weight re-growth is the percentage of activity (for Colby).
(§8) The re-growth data was implemented in curve and the synergistic effect was calculated. The observed efficacy is higher than calculated efficacy.

[2] = test system: ALS resistant rice variety (A205V and G654E substitution); assay: Imazamox dose response with or without isoxadifen, regrowth, ALS resistant rice
Procedure: as §1, §2, §3, §4
Efficacy tests were conducted to determine the effect of imazamox on rice plant with the A205V and G654E substitutions (ATCC accession numbers PTA-123859, PTA-123860 and/or PTA-123861) in the presence of safener (isoxadifen).
as §5, §6, §7, §8

[3] = test system: mutant rice (ML0831265-01493, ATCC deposit PTA-12933, mutation G2096S); assay: Tank mixes of safeners with propaquizafop or quizalofop: regrowth of mutant rice
Procedure: (§9) Seeds of a proprietary ACCase resistant rice variety, i.e. RTA1, was used. RTA1, ML0831265-01493 (ATCC deposit PTA-12933, mutation G2096S) variety rice seeds were supplied by RiceTec. RTA1 rice cultivar contains a single mutation in the ACCase gene that confer ACCase resistance. The mutation makes the enzyme insensitive to quizalofop.
as §1, with “Mutant” for “Seed of an ALS resistant”, “seeds were” for “variety (rice plant with the A205V and G654E substitution (ATCC accession numbers PTA-123859, PTA-123860 and/or PTA-123861) is”, “in” for “in a”, “was” for “is”, “seeds were” for “seed is”, “were” for “are”
Plants were grown until 10 days after planting and then the pots were transferred to trays and the plants were grown under water. :Plants were treated when they reached the 3-5 leaf stage.
Safeners were tank mixed with the herbicide in the spray bottle.
(§10) Four days after treatment, the tops of the plants were cut off so that approximately 2.5 cm of plant from the top of the soil remain. The plants were allowed to regrow for 3 days at which time the amount of regrowth was weighed by measuring the amount of fresh weight of tissue that regrew. Comparing the weight of regrowth of shoots after cutting indicates the level of phytotoxicity the herbicide had on the mutant rice plant and the increased level of resistance of the mutant rice to the herbicide when the herbicide was applied in combination with the safener.
The safeners were applied in various w/w ratios with the ACCase inhibiting herbicides to the rice plant.

[4] = test system: ACCase inhibitor resistant rice seeds (ML0831265-01493 (ATCC deposit PTA-12933, mutation G2096S)); assay: Safener seed treatment with propaquizafop or quizalofop: regrowth of resistant rice
Procedure: as §9
as §1, with “Mutant” for “Seed of an ALS resistant”, “seeds were” for “variety (rice plant with the A205V and G654E substitution (ATCC accession numbers PTA-123859, PTA-123860 and/or PTA-123861) is”, “in” for “in a”, “was” for “is”, “seeds were” for “seed is”, “were” for “are”
Plants were grown until 10 days after planting and then the pots were transferred to trays and the plants were grown under water. :Plants were treated when they reached the 3-5 leaf stage. […]
as §10
The safeners were also applied in various w/w ratios of the ACCase inhibiting herbicides to the rice seeds.

[5] = tank mix with propaquizafop 50 g/ha, safener 12.5 g/ha
[6] = tank mix with propaquizafop 50 g/ha, safener 25 g/ha
[7] = tank mix with propaquizafop 50 g/ha, safener 50 g/ha
[8] = tank mix with propaquizafop 50 g/ha, safener 100 g/ha
[9] = tank mix with quizalofop 40 g/ha, safener 12.5 g/ha
[10] = tank mix with quizalofop 40 g/ha, safener 25 g/ha
[11] = tank mix with quizalofop 40 g/ha, safener 50 g/ha
[12] = tank mix with quizalofop 40 g/ha, safener 100 g/ha
[13] = propaquizafop, safener seed treatment 0.5 g/kg of seed
[14] = propaquizafop, safener seed treatment 1 g/kg of seed
[15] = propaquizafop, safener seed treatment 2 g/kg of seed
[16] = quizalofop, safener seed treatment 0.5 g/kg of seed
[17] = quizalofop, safener seed treatment 1 g/kg of seed
[18] = quizalofop, safener seed treatment 2 g/kg of seed

SMILES: COCc1cnc(C2=NC(C)(C(C)C)C(=O)N2)c(C(=O)O)c1 (racemic) [Imazamox, 2-[(RS)-4-isopropyl-4-methyl-5-oxo-2-imidazolin-2-yl]-5-methoxymethylnicotinic acid]
- Relative fresh weight re-growth after treatment ([1]; Non-Traited Rice, imazamox 2.2 g/ha): 0.36
- Relative fresh weight re-growth after treatment ([1]; Non-Traited Rice, imazamox 6.6 g/ha): 0.16
- Relative fresh weight re-growth after treatment ([1]; Non-Traited Rice, imazamox 19.7 g/ha): 0.14
- Relative fresh weight re-growth after treatment ([1]; Non-Traited Rice, imazamox 54.9 g/ha): 0.11
- Relative fresh weight re-growth after treatment ([1]; Non-Traited Rice, imazamox 177.3 g/ha): 0.09
- Relative fresh weight re-growth after treatment ([1]; Safener & Non-Traited Rice (isoxadifen 100 g/ha), imazamox 2.2 g/ha): 0.47
- Relative fresh weight re-growth after treatment ([1]; Safener & Non-Traited Rice (isoxadifen 100 g/ha), imazamox 6.6 g/ha): 0.17
- Relative fresh weight re-growth after treatment ([1]; Safener & Non-Traited Rice (isoxadifen 100 g/ha), imazamox 19.7 g/ha): 0.06
- Relative fresh weight re-growth after treatment ([1]; Safener & Non-Traited Rice (isoxadifen 100 g/ha), imazamox 54.9 g/ha): 0.05
- Relative fresh weight re-growth after treatment ([1]; Safener & Non-Traited Rice (isoxadifen 100 g/ha), imazamox 177.3 g/ha): 0.05
- Efficacy at ED50 of mutant- 42 g/ha (%) ([1]; calculated effect of safener alone, imazamox 42 g/ha): 0%
- Calculated effect of Safener (relative fresh weight re-growth) ([1]; imazamox 2.2 g/ha): 0.12
- Calculated effect of Safener (relative fresh weight re-growth) ([1]; imazamox 6.6 g/ha): 0.02
- Calculated effect of Safener (relative fresh weight re-growth) ([1]; imazamox 19.7 g/ha): −0.08
- Calculated effect of Safener (relative fresh weight re-growth) ([1]; imazamox 54.9 g/ha): −0.06
- Calculated effect of Safener (relative fresh weight re-growth) ([1]; imazamox 177.3 g/ha): −0.04
- increase of resistance (ED50) by the safener ([1]; wildtype rice with safener vs without): 4 folds
- Relative fresh weight re-growth after treatment ([2]; Mutant & Safener (isoxadifen 100 g/ha), imazamox 2.2 g/ha): 1.17
- Relative fresh weight re-growth after treatment ([2]; Mutant & Safener (isoxadifen 100 g/ha), imazamox 6.6 g/ha): 1.33
- Relative fresh weight re-growth after treatment ([2]; Mutant & Safener (isoxadifen 100 g/ha), imazamox 19.7 g/ha): 1.14
- Relative fresh weight re-growth after treatment ([2]; Mutant & Safener (isoxadifen 100 g/ha), imazamox 54.9 g/ha): 0.53
- Relative fresh weight re-growth after treatment ([2]; Mutant & Safener (isoxadifen 100 g/ha), imazamox 177.3 g/ha): 0.13
- Relative fresh weight re-growth after treatment ([2]; Mutant, no safener, imazamox 2.2 g/ha): 0.93
- Relative fresh weight re-growth after treatment ([2]; Mutant, no safener, imazamox 6.6 g/ha): 0.99
- Relative fresh weight re-growth after treatment ([2]; Mutant, no safener, imazamox 19.7 g/ha): 0.68
- Relative fresh weight re-growth after treatment ([2]; Mutant, no safener, imazamox 54.9 g/ha): 0.42
- Relative fresh weight re-growth after treatment ([2]; Mutant, no safener, imazamox 177.3 g/ha): 0.15
- Calculated efficacy base on Colby (%) ([2]; expected for mutant & safener, imazamox 42 g/ha): 50%
- additive effect of safener and mutant on ED50 ([2]; expected, 4+85): 89 folds
- observed increase in ED50 ([2]; herbicide resistant rice with safener vs the wildtype): 120 folds
- Observed efficacy (%) ([2]; mutant & safener, imazamox 42 g/ha): 77%
- Efficacy at ED50 of mutant- 42 g/ha (%) ([2]; mutant alone, imazamox 42 g/ha): 50%
- increase in tolerance to herbicide (ED50) by the mutation ([2]; mutant rice vs wildtype rice, no safener): 85 fold

SMILES: O=C(C(Cl)Cl)N1CCOC12CCCCC2 [AD-67]
- Regrowth (fresh weight mg) [3, 5]: 68 mg
- Regrowth (fresh weight mg) [3, 6]: 222 mg
- Regrowth (fresh weight mg) [3, 7]: 288 mg
- Regrowth (fresh weight mg) [3, 8]: 512 mg
- Regrowth (fresh weight mg) [3, 9]: 202 mg
- Regrowth (fresh weight mg) [3, 10]: 292 mg
- Regrowth (fresh weight mg) [3, 11]: 348 mg
- Regrowth (fresh weight mg) [3, 12]: 505 mg
- Regrowth (fresh weight mg) [4, 13]: 173 mg
- Regrowth (fresh weight mg) [4, 14]: 113 mg
- Regrowth (fresh weight mg) [4, 15]: 170 mg
- Regrowth (fresh weight mg) [4, 16]: 233 mg
- Regrowth (fresh weight mg) [4, 17]: 285 mg
- Regrowth (fresh weight mg) [4, 18]: 298 mg

SMILES: CC1COc2ccccc2N1C(=O)C(Cl)Cl (centres unmarked) [Benzacor, benoxacor]
- Regrowth (fresh weight mg) [4, 13]: 37 mg
- Regrowth (fresh weight mg) [4, 14]: 107 mg
- Regrowth (fresh weight mg) [4, 15]: 98 mg
- Regrowth (fresh weight mg) [4, 16]: 90 mg
- Regrowth (fresh weight mg) [4, 17]: 72 mg
- Regrowth (fresh weight mg) [4, 18]: 78 mg

SMILES: O=C(O)COc1ccc(Cl)c2cccnc12 [Cloquinoce, cloquintocet]
- Regrowth (fresh weight mg) [3, 5]: 42 mg
- Regrowth (fresh weight mg) [3, 6]: 90 mg
- Regrowth (fresh weight mg) [3, 7]: 158 mg
- Regrowth (fresh weight mg) [3, 8]: 355 mg
- Regrowth (fresh weight mg) [3, 9]: 172 mg
- Regrowth (fresh weight mg) [3, 10]: 132 mg
- Regrowth (fresh weight mg) [3, 11]: 252 mg
- Regrowth (fresh weight mg) [3, 12]: 398 mg
- Regrowth (fresh weight mg) [4, 13]: 275 mg
- Regrowth (fresh weight mg) [4, 14]: 342 mg
- Regrowth (fresh weight mg) [4, 15]: 358 mg
- Regrowth (fresh weight mg) [4, 16]: 143 mg
- Regrowth (fresh weight mg) [4, 17]: 145 mg
- Regrowth (fresh weight mg) [4, 18]: 273 mg

SMILES: Clc1cc(Cl)nc(-c2ccccc2)n1 [Fenclorim, fenclorim]
- Regrowth (fresh weight mg) [3, 5]: 15 mg
- Regrowth (fresh weight mg) [3, 6]: 13 mg
- Regrowth (fresh weight mg) [3, 7]: 15 mg
- Regrowth (fresh weight mg) [3, 8]: 15 mg
- Regrowth (fresh weight mg) [3, 9]: 42 mg
- Regrowth (fresh weight mg) [3, 10]: 52 mg
- Regrowth (fresh weight mg) [3, 11]: 67 mg
- Regrowth (fresh weight mg) [3, 12]: 55 mg
- Regrowth (fresh weight mg) [4, 13]: 137 mg
- Regrowth (fresh weight mg) [4, 14]: 195 mg
- Regrowth (fresh weight mg) [4, 15]: 283 mg
- Regrowth (fresh weight mg) [4, 16]: 163 mg
- Regrowth (fresh weight mg) [4, 17]: 167 mg
- Regrowth (fresh weight mg) [4, 18]: 180 mg

SMILES: CC(C)=NOCCOC(=O)[C@@H](C)Oc1ccc(Oc2cnc3cc(Cl)ccc3n2)cc1 [Propaquizafop, (R)-2-[[(1-methylethylidene)amino]oxy]ethyl 2-[4-[(6-chloro-2-quinoxalinyl)oxy]phenoxy]propanoate]
- Regrowth (fresh weight mg) ([3]; propaquizafop 50 g/ha, no safener): 25 mg
- Regrowth (fresh weight mg) ([4]; propaquizafop, seeds without safener): 55 mg
